From US20200121807A1, “Anti-Cancer Agents” (UEA ENTERPRISES LIMITED, priority 2016, published 2020)

Assays:
[1] = tested on: PC-3 metastatic prostate cancer cells; assay: PC-3 prostate tumour xenograft, free agents, tumour weight; assay type: in vivo, Balb/c nude mice; settings: 5 mg/kg single agent, prostate tumours
Procedure: (§1) Tumour weight at week 5. Columns, mean of three experiments performed in triplicate. Bars, SE. * p<0.05 versus control.
(§2) Mice and tumours were weighed.
(§3) Data are presented as the mean values of at least three independent experiments normalised to control±standard error of the mean (SE) calculated using OriginPro. Statistical significance between two groups was conducted by unpaired Student's t test. p value of <0.05 is considered statistically significant.

[2] = tested on: MDA-MB-231 metastatic triple negative breast cancer cell; assay: MDA-MB-231 breast tumour xenograft, free agents, tumour weight; assay type: in vivo, Balb/c nude mice; settings: 5 mg/kg single agent, breast tumours
Procedure: as §1, §2, §3

SK1 = target: T1, SK1 (Homo sapiens, UniProt Q9NYA1); assay: SK1 activity by radiolabelling in PC-3 cells; assay type: cell-based; settings: PC-3 cells treated for 48 h
T1 construct: endogenous in cells; host or cells: PC-3 cells (obtained from DSMZ)
T1 sequence (Q9NYA1 whole entry): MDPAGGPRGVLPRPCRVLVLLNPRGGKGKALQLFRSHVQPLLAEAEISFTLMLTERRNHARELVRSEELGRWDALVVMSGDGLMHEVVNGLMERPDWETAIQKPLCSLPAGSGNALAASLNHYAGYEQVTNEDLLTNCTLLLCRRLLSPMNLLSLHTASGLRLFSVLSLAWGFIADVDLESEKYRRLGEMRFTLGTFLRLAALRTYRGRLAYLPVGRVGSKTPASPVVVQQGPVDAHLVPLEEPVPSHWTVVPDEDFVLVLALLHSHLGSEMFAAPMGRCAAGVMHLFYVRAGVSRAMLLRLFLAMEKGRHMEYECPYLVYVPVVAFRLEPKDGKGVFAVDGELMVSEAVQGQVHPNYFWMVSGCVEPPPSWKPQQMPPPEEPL
Procedure: (D) PC-3 cells were treated for 48 h as indicated in figure and SK1 activity was measured by radiolabelling. Columns, points, percentage relative to the control. Data is expressed as Mean±SE (n=3). * p<0.05 versus control, ** p<0.05 versus free drug treatment (DTX+FTY). (E) Cytotoxicity of free drugs was assessed using the MTT assay (48 hr: dark shading; 72 hr: light shading; 96 hr: no shading); the final two columns showing sequential administration of docetaxel on day 1 (D1) followed by FTY720 on day 2 (D2), or administration of FTY720 on day 1 (D1) followed by docetaxel on day 2 (D2).
SK1 assay was performed using radiolabelling as previously described (Alshaker et al (2014), above, plus: Alshaker, H. et al. Sphingosine kinase 1 contributes to leptin-induced STAT3 phosphorylation through IL-6/gp130 transactivation in oestrogen receptor-negative breast cancer. Breast Cancer Res Treat 149, 59-67, doi:10.1007/s10549-014-3228-8 (2015); and Pchejetski, D. et al. The involvement of sphingosine kinase 1 in LPS-induced Toll-like receptor 4-mediated accumulation of HIF-1alpha protein, activation of ASK1 and production of the pro-inflammatory cytokine IL-6. Immunol Cell Biol 89, 268-274, doi:10.1038/icb.2010.91 (2011)), in conditions favouring SK1 activity and inhibiting SK2 activity.

[3] = in vivo; cited from earlier work
[4] = Toxicity in PC-3 tumour-bearing NSG mice (body weight, liver weight, WCC); assay type: in vivo; settings: after 2 weeks of administration
Procedure: At Day 30 mice were sacrificed and liver weight measurements were performed. Liver weight was normalised to control group (healthy group no treatment). *: p<0.05 vs. control group (ANOVA). Data is expressed as Mean±SE (n=7).

SK1 activity (SK1)	Compound	tumour weight reduction, individual drug treatment [1]	tumour weight reduction, individual drug treatment [2]	circulation half-life [3] [h]	white cell count [4]	half-life [3] [h]
insignificant increase	CC(=O)O[C@@]12CO[C@@H]1C[C@H](O)[C@@]1(C)C(=O)[C@H](O)C3=C(C)[C@@H](OC(=O)[C@H](O)[C@@H](NC(=O)OC(C)(C)C)c4ccccc4)C[C@@](O)([C@@H](OC(=O)c4ccccc4)[C@H]21)C3(C)C [docetaxel]	did not reduce the tumour weight significantly	did not reduce the tumour weight significantly	~17	–	–
–	CCCCCCCCc1ccc(CCC(N)(CO)CO)cc1 [FTY720, fingolimod]	–	–	–	significantly reduced white cell count	140 to 220
–	Oc1ccc(Nc2nc(-c3ccc(Cl)cc3)cs2)cc1 [SK1-II]	did not reduce the tumour weight significantly	–	–	–	–
